This note sets out measurements from PubChem BioAssay AID1259407 (Chemical Carcinogenesis Research Information System (CCRIS), 2018).

The subject of this data set is CCRIS mutagenicity, Ames/micronucleus/aberration tests. As to the kind of experiment: CCRIS mutagenicity studies.
Where [1] appears, read: Test System: AMES SALMONELLA TYPHIMURIUM, Strain/Indicator: TA98(1,8-DNP6), Metabolic Activation: NONE, Method: STANDARD PLATE.
The mark [2] stands for this setting: Test System: AMES SALMONELLA TYPHIMURIUM, Strain/Indicator: TA98(NR), Metabolic Activation: NONE, Method: STANDARD PLATE.
The mark [3] stands for this setting: Test System: AMES SALMONELLA TYPHIMURIUM, Strain/Indicator: TA98, Metabolic Activation: NONE, Method: STANDARD PLATE.
Where [4] appears, read: Test System: AMES SALMONELLA TYPHIMURIUM, Strain/Indicator: TA98, Metabolic Activation: RAT, LIVER, S-9, AROCLOR 1254, Method: STANDARD PLATE.
[5] abbreviates: Test System: AMES SALMONELLA TYPHIMURIUM, Strain/Indicator: TA100, Metabolic Activation: NONE, Method: STANDARD PLATE.
The mark [6] stands for this setting: Test System: AMES SALMONELLA TYPHIMURIUM, Strain/Indicator: TA100, Metabolic Activation: RAT, LIVER, S-9, AROCLOR 1254, Method: STANDARD PLATE.
Where [7] appears, read: Test System: AMES SALMONELLA TYPHIMURIUM, Strain/Indicator: TA1537, Metabolic Activation: NONE, Method: STANDARD PLATE.
Where [8] appears, read: Test System: AMES SALMONELLA TYPHIMURIUM, Strain/Indicator: TA1535, Metabolic Activation: NONE, Method: STANDARD PLATE.
Setting [9] is: Test System: AMES SALMONELLA TYPHIMURIUM, Strain/Indicator: TA1538, Metabolic Activation: NONE, Method: STANDARD PLATE.
The mark [10] stands for this setting: Test System: AMES SALMONELLA TYPHIMURIUM, Strain/Indicator: TA1538, Metabolic Activation: RAT, LIVER, S-9, AROCLOR 1254, Method: STANDARD PLATE.
The mark [11] stands for this setting: Test System: AMES SALMONELLA TYPHIMURIUM, Strain/Indicator: TA98, Metabolic Activation: NONE, Method: PREINCUBATION

The structures appear in SMILES notation. Active and inactive are the calls of the source. How the calls were made is not given here.

With `O=[N+]([O-])c1ccc2ccc3c4c(cc5ccc1c2c53)C=CCC4`, the mutagenic call runs as follows: under setting [1], “active; positive”; (Test System: AMES SALMONELLA TYPHIMURIUM, Strain/Indicator: TA98(1,8-DNP6), Metabolic Activation: RAT, LIVER, S-9, AROCLOR 1254, Method: STANDARD PLATE) “active; positive”; under setting [2], “active; positive”; (Test System: AMES SALMONELLA TYPHIMURIUM, Strain/Indicator: TA98(NR), Metabolic Activation: RAT, LIVER, S-9, AROCLOR 1254, Method: STANDARD PLATE) “active; positive”; under setting [3], “active; positive”; under setting [4], “active; positive”. Besides, the mutagenic call under setting [5] is “active; positive” and the mutagenic call under setting [6] was “active; positive”.
`Nc1nc2n[nH]nc2c(=O)[nH]1`: the mutagenic call reads like this: under setting [3], “inactive; negative”; (Test System: AMES SALMONELLA TYPHIMURIUM, Strain/Indicator: TA98, Metabolic Activation: S-9, Method: STANDARD PLATE) “inactive; negative”; under setting [5], “inactive; negative”; (Test System: AMES SALMONELLA TYPHIMURIUM, Strain/Indicator: TA100, Metabolic Activation: S-9, Method: STANDARD PLATE) “inactive; negative”; (Test System: AMES SALMONELLA TYPHIMURIUM, Strain/Indicator: TA102, Metabolic Activation: NONE, Method: STANDARD PLATE) “inactive; negative”; under setting [7], “inactive; negative”. The mutagenic call was “inactive; negative” (Test System: AMES SALMONELLA TYPHIMURIUM, Strain/Indicator: TA1537, Metabolic Activation: S-9, Method: STANDARD PLATE); “inactive; negative” (Test System: E. COLI, Strain/Indicator: WP2 (HCR), Metabolic Activation: NONE, Method: STANDARD PLATE); “inactive; negative” (Test System: E. COLI, Strain/Indicator: WP2 (HCR), Metabolic Activation: S-9, Method: STANDARD PLATE).
Regarding `c1ccc(-c2ccc(CCC3CO3)cc2)cc1` (centres undefined), the mutagenic call reads like this: (Test System: AMES SALMONELLA TYPHIMURIUM, Strain/Indicator: TA100, Metabolic Activation: NONE, Method: PREINCUBATION) “inactive; negative”; under setting [5], “active; positive”; under setting [8], “inactive; negative”.
For `CCCOS(C)(=O)=O`, the mutagenic call (End Point: IN VITRO MICRONUCLEUS, Test System: MOUSE LYMPHOMA L5178Y CELLS, Metabolic Activation: NONE) is “active; positive”; the mutagenic call (End Point: IN VITRO MICRONUCLEUS, Test System: MOUSE LYMPHOMA L5178Y CELLS, Metabolic Activation: RAT, LIVER, S-9) was “inactive; negative; authors report results as weakly positive”; the mutagenic call (End Point: In vitro micronucleus, Test System: Chinese Hamster Ovary (CHO-WBL) cells, Metabolic Activation: None) was “active; positive (p<0.01)”; the mutagenic call under setting [5] is “active; positive”; the mutagenic call (Test System: AMES SALMONELLA TYPHIMURIUM, Strain/Indicator: TA100, Metabolic Activation: RAT, LIVER, S-9, Method: STANDARD PLATE) is “active; positive”.
For `O=C(Nc1ccccc1)C1CO1` (centres undefined), the mutagenic call by setting is: (Test System: AMES SALMONELLA TYPHIMURIUM, Strain/Indicator: TA100, Metabolic Activation: MOUSE, LIVER, S-9, AROCLOR 1254, Method: STANDARD PLATE) “active; positive”; under setting [5], “active; positive”.
Consider `O[C@@H]1[C@@H]2O[C@@H]2c2c(ccc3ccc4ccccc4c23)[C@H]1O`, for which the mutagenic call (Test System: E. COLI, Strain/Indicator: CL101P, Metabolic Activation: NONE, Method: PREINCUBATION) was “active; positive”; the mutagenic call (Test System: E. COLI, Strain/Indicator: CL102P, Metabolic Activation: NONE, Method: PREINCUBATION) was “active; positive”; the mutagenic call (Test System: E. COLI, Strain/Indicator: CL103P, Metabolic Activation: NONE, Method: PREINCUBATION) was “active; positive”; the mutagenic call (Test System: E. COLI, Strain/Indicator: CL104P, Metabolic Activation: NONE, Method: PREINCUBATION) is “active; positive”; the mutagenic call (Test System: E. COLI, Strain/Indicator: CL105P, Metabolic Activation: NONE, Method: PREINCUBATION) was “active; positive”; the mutagenic call (Test System: E. COLI, Strain/Indicator: CL106P, Metabolic Activation: NONE, Method: PREINCUBATION) was “active; positive”.
Consider `Nc1ccc2cc(S(=O)(=O)O)c(N=Nc3ccc(N=Nc4ccccc4)cc3OCCO)c(O)c2c1`, for which the mutagenic call was “inactive; negative” under setting [3]; “active; positive” under setting [4]; “inactive; negative” under setting [5]; “active; positive” under setting [6]; “inactive; negative” under setting [9]; “active; positive” under setting [10].
As to `CN(CCO)C(=O)Nc1ccc(Cl)c(Cl)c1`, the mutagenic call under setting [3] was “inactive; negative”; the mutagenic call under setting [4] is “inactive; negative”; the mutagenic call under setting [5] was “inactive; negative”; the mutagenic call under setting [6] was “inactive; negative”; the mutagenic call under setting [8] was “inactive; negative”; the mutagenic call (Test System: AMES SALMONELLA TYPHIMURIUM, Strain/Indicator: TA1535, Metabolic Activation: RAT, LIVER, S-9, AROCLOR 1254, Method: STANDARD PLATE) was “inactive; negative”. In addition, the mutagenic call by setting is: under setting [7], “inactive; negative”; (Test System: AMES SALMONELLA TYPHIMURIUM, Strain/Indicator: TA1537, Metabolic Activation: RAT, LIVER, S-9, AROCLOR 1254, Method: STANDARD PLATE) “inactive; negative”; under setting [9], “inactive; negative”; under setting [10], “inactive; negative”.
Turning to `O=[N+]([O-])c1ccc2c(c1)Cc1cc([N+](=O)[O-])ccc1-2`, the mutagenic call under setting [1] was “active; positive”; the mutagenic call under setting [2] is “active; positive”; the mutagenic call under setting [11] was “active; positive”; the mutagenic call under setting [3] is “active; positive”; the mutagenic call under setting [4] is “active; positive”; the mutagenic call (Test System: AMES SALMONELLA TYPHIMURIUM, Strain/Indicator: TA98, Metabolic Activation: RAT, LIVER, S-9, PCB (10%), Method: PREINCUBATION) was “active; positive”. For the same molecule, the mutagenic call reads like this: under setting [5], “active; positive”; under setting [6], “active; positive”.
For `COC(=O)C(Cl)Cl`, the mutagenic call (End Point: IN VITRO CHROMOSOMAL ABERRATIONS, Test System: CHL CELLS, Metabolic Activation: NONE) was “active; positive (structural changes); precipitation of test chemical observed above 1.6”; the mutagenic call (End Point: IN VITRO CHROMOSOMAL ABERRATIONS, Test System: CHL CELLS, Metabolic Activation: RAT, LIVER, S-9, SODIUM PHENOBARBITAL AND 5,6-BENZOFLAVONE) was “active; positive (structural changes); precipitation of test chemical observed above 2.0”; the mutagenic call (Test System: AMES SALMONELLA TYPHIMURIUM, Strain/Indicator: TA102, Metabolic Activation: RAT, LIVER, S-9, PHENOBARBITAL AND 5,6-BENZOFLAVONE, Method: STANDARD PLATE) is “active; positive”; the mutagenic call (Test System: AMES SALMONELLA TYPHIMURIUM, Strain/Indicator: TA2638, Metabolic Activation: RAT, LIVER, S-9, PHENOBARBITAL AND 5,6-BENZOFLAVONE, Method: STANDARD PLATE) is “active; positive”; the mutagenic call (Test System: E. COLI, Strain/Indicator: WP2 (PKM101), Metabolic Activation: RAT, LIVER, S-9, PHENOBARBITAL AND 5,6-BENZOFLAVONE, Method: STANDARD PLATE) was “active; positive”; the mutagenic call (Test System: E. COLI, Strain/Indicator: WP2 UVRA (PKM101), Metabolic Activation: RAT, LIVER, S-9, PHENOBARBITAL AND 5,6-BENZOFLAVONE, Method: STANDARD PLATE) is “active; positive”.
Regarding `CC(C)(C)CNC(=O)C=Cc1ccc([N+](=O)[O-])o1`, under setting [11], the mutagenic call was “active; positive”.
